This passage reports MIC results from ChEMBL document CHEMBL5634148, “Synthesis and evaluation of novel pleuromutilin derivatives targeting the 50S ribosomal subunit for antibacterial ability” (Eur J Med Chem, 2023).

What all share (type): functional
Holding throughout (details): time 18-24 hrs

Assay [1] has as its system Staphylococcus aureus. As to the kind of experiment: Antibacterial activity against methicillin-resistant Staphylococcus aureus BNCC 337371 assessed as bacterial growth inhibition incubated for 18 to 24 hrs by NCCLS based assay.
Assay [2] relates to Staphylococcus epidermidis. As to the kind of experiment: Antibacterial activity against methicillin-resistant Staphylococcus epidermidis ATCC 51625 assessed as bacterial growth inhibition incubated for 18 to 24 hrs by NCCLS based assay.
Assay [3] relates to Staphylococcus aureus. As to the kind of experiment: Antibacterial activity against Staphylococcus aureus ATCC 25923 assessed as bacterial growth inhibition incubated for 18 to 24 hrs by NCCLS based assay.
Another assay deals with Streptococcus agalactiae. As to the kind of experiment: Antibacterial activity against Streptococcus agalactiae assessed as bacterial growth inhibition incubated for 18 to 24 hrs by NCCLS based assay.
The next assay deals with Enterococcus faecalis. As to the kind of experiment: Antibacterial activity against Enterococcus faecalis assessed as bacterial growth inhibition incubated for 18 to 24 hrs by NCCLS based assay.
Another assay deals with Pasteurella multocida. As to the kind of experiment: Antibacterial activity against Pasteurella multocida CVCC 1659 assessed as bacterial growth inhibition incubated for 18 to 24 hrs by NCCLS based assay.
The subject of another assay is Escherichia coli. As to the kind of experiment: Antibacterial activity against Escherichia coli CICC 10389 assessed as bacterial growth inhibition incubated for 18 to 24 hrs by NCCLS based assay.

≈ marks a conversion by molar mass, not a printed value.

A word on the MIC: it is the least concentration at which growth counts as inhibited. As for `C=C[C@]1(C)C[C@@H](OC(=O)CSc2ncnc(NC)n2)[C@]2(C)[C@H](C)CC[C@]3(CCC(=O)[C@H]32)[C@@H](C)[C@@H]1O`, the MIC is 0.25 µg/mL (≈ 0.497 µM) in the assay on Staphylococcus aureus [1]; 0.5 µg/mL (≈ 0.995 µM) in assay [2]; 0.125 µg/mL (≈ 0.249 µM) in the assay with Staphylococcus aureus [3]; 0.125 µg/mL (≈ 0.249 µM) in the assay with Streptococcus agalactiae; 32 µg/mL (≈ 63.7 µM) in the assay on Enterococcus faecalis; not below 64 µg/mL with Pasteurella multocida. The MIC in the assay on Escherichia coli is not below 64 µg/mL.

For `C=C[C@]1(C)C[C@@H](OC(=O)CSc2ncnc(N3CCNCC3)n2)[C@]2(C)[C@H](C)CC[C@]3(CCC(=O)[C@H]32)[C@@H](C)[C@@H]1O`, the MIC in the assay on Staphylococcus aureus [1] was 2 µg/mL (≈ 3.59 µM); in assay [2], 2 µg/mL (≈ 3.59 µM); in the assay on Staphylococcus aureus [3] it was 1 µg/mL (≈ 1.79 µM); with Streptococcus agalactiae, 0.25 µg/mL (≈ 0.448 µM); with Enterococcus faecalis it was not below 64 µg/mL; in the assay with Pasteurella multocida it was not below 64 µg/mL. For the same compound, in the assay on Escherichia coli, the MIC is not below 64 µg/mL.

`C=C[C@]1(C)C[C@@H](OC(=O)CSc2ncnc(OCCCC)n2)[C@]2(C)[C@H](C)CC[C@]3(CCC(=O)[C@H]32)[C@@H](C)[C@@H]1O`: the MIC was 0.5 µg/mL (≈ 0.916 µM) with Staphylococcus aureus [1]; 0.25 µg/mL (≈ 0.458 µM) in assay [2]; 0.125 µg/mL (≈ 0.229 µM) with Staphylococcus aureus [3]; 4 µg/mL (≈ 7.33 µM) in the assay on Streptococcus agalactiae; not below 64 µg/mL with Enterococcus faecalis; not below 64 µg/mL in the assay with Pasteurella multocida. In addition, the MIC in the assay with Escherichia coli is not below 64 µg/mL.

`C=C[C@]1(C)C[C@@H](OC(=O)CSc2ncnc(NCCNC)n2)[C@]2(C)[C@H](C)CC[C@]3(CCC(=O)[C@H]32)[C@@H](C)[C@@H]1O`: the MIC in the assay on Staphylococcus aureus [1] is 0.25 µg/mL (≈ 0.458 µM); in assay [2] it was 0.25 µg/mL (≈ 0.458 µM); in the assay with Staphylococcus aureus [3], 0.063 µg/mL (≈ 0.115 µM); with Streptococcus agalactiae, 0.013 µg/mL (≈ 0.0238 µM); in the assay with Enterococcus faecalis, 32 µg/mL (≈ 58.6 µM); with Pasteurella multocida, not below 64 µg/mL. Moreover, the MIC in the assay on Escherichia coli is not below 64 µg/mL.

Regarding `C=C[C@]1(C)C[C@@H](OC(=O)CSc2ncnc(Cl)n2)[C@]2(C)[C@H](C)CC[C@]3(CCC(=O)[C@H]32)[C@@H](C)[C@@H]1O`, the MIC in the assay on Staphylococcus aureus [1] is 8 µg/mL (≈ 15.7 µM); in assay [2], 8 µg/mL (≈ 15.7 µM); in the assay with Staphylococcus aureus [3], 4 µg/mL (≈ 7.87 µM); in the assay with Streptococcus agalactiae, 2 µg/mL (≈ 3.94 µM); in the assay on Enterococcus faecalis it was 32 µg/mL (≈ 63 µM); in the assay with Pasteurella multocida, not below 64 µg/mL. For the same compound, the MIC in the assay on Escherichia coli is not below 64 µg/mL.

Regarding `C=C[C@]1(C)C[C@@H](OC(=O)CSc2ncnc(N3CCCCC3)n2)[C@]2(C)[C@H](C)CC[C@]3(CCC(=O)[C@H]32)[C@@H](C)[C@@H]1O`, the minimal inhibitory concentration (MIC) in the assay with Staphylococcus aureus [1] is 0.125 µg/mL (≈ 0.225 µM); in assay [2] it was 0.125 µg/mL (≈ 0.225 µM); with Staphylococcus aureus [3] it was 0.063 µg/mL (≈ 0.113 µM); in the assay on Streptococcus agalactiae it was 0.5 µg/mL (≈ 0.898 µM); with Enterococcus faecalis, 32 µg/mL (≈ 57.5 µM); with Pasteurella multocida it was not below 64 µg/mL. Besides, in the assay with Escherichia coli, the MIC is not below 64 µg/mL.

`C=C[C@]1(C)C[C@@H](OC(=O)CSc2ncnc(OC)n2)[C@]2(C)[C@H](C)CC[C@]3(CCC(=O)[C@H]32)[C@@H](C)[C@@H]1O`: the MIC was 0.25 µg/mL (≈ 0.496 µM) in the assay with Staphylococcus aureus [1]; 0.25 µg/mL (≈ 0.496 µM) in assay [2]; 0.125 µg/mL (≈ 0.248 µM) in the assay with Staphylococcus aureus [3]; 0.125 µg/mL (≈ 0.248 µM) in the assay with Streptococcus agalactiae; 32 µg/mL (≈ 63.5 µM) with Enterococcus faecalis; not below 64 µg/mL in the assay with Pasteurella multocida. The minimum inhibitory concentration (MIC) in the assay on Escherichia coli is not below 64 µg/mL.

`C=C[C@]1(C)C[C@@H](OC(=O)CSc2ncnc(NCC)n2)[C@]2(C)[C@H](C)CC[C@]3(CCC(=O)[C@H]32)[C@@H](C)[C@@H]1O`: the MIC in the assay on Staphylococcus aureus [1] was 0.125 µg/mL (≈ 0.242 µM); in assay [2], 0.125 µg/mL (≈ 0.242 µM); with Staphylococcus aureus [3], 0.125 µg/mL (≈ 0.242 µM); with Streptococcus agalactiae, 0.013 µg/mL (≈ 0.0252 µM); in the assay with Enterococcus faecalis, 16 µg/mL (≈ 31 µM); in the assay on Pasteurella multocida, not below 64 µg/mL. In the assay on Escherichia coli, the MIC was not below 64 µg/mL.

As for `C=C[C@]1(C)C[C@@H](OC(=O)CSc2ncnc(NCCN3CCCC3)n2)[C@]2(C)[C@H](C)CC[C@]3(CCC(=O)[C@H]32)[C@@H](C)[C@@H]1O`, the MIC in the assay with Staphylococcus aureus [1] was 0.125 µg/mL (≈ 0.213 µM); in assay [2], 0.125 µg/mL (≈ 0.213 µM); with Staphylococcus aureus [3] it was 0.063 µg/mL (≈ 0.108 µM); in the assay on Streptococcus agalactiae, 0.125 µg/mL (≈ 0.213 µM); with Enterococcus faecalis, 32 µg/mL (≈ 54.6 µM); in the assay on Pasteurella multocida it was not below 64 µg/mL. In addition, in the assay on Escherichia coli, the MIC was not below 64 µg/mL.

For the compound `C=C[C@]1(C)C[C@@H](OC(=O)CSc2ncnc(OCCC)n2)[C@]2(C)[C@H](C)CC[C@]3(CCC(=O)[C@H]32)[C@@H](C)[C@@H]1O`, the MIC in the assay with Staphylococcus aureus [1] is 16 µg/mL (≈ 30.1 µM); in assay [2], 16 µg/mL (≈ 30.1 µM); in the assay on Staphylococcus aureus [3] it was 16 µg/mL (≈ 30.1 µM); with Streptococcus agalactiae it was 8 µg/mL (≈ 15 µM); in the assay with Enterococcus faecalis, not below 64 µg/mL; with Pasteurella multocida, not below 64 µg/mL. For the same compound, in the assay on Escherichia coli, the MIC was not below 64 µg/mL.

As for `C=C[C@]1(C)C[C@@H](OC(=O)CSc2ncnc(N3CCCC3)n2)[C@]2(C)[C@H](C)CC[C@]3(CCC(=O)[C@H]32)[C@@H](C)[C@@H]1O`, the MIC in the assay with Staphylococcus aureus [1] was 0.125 µg/mL (≈ 0.23 µM); in assay [2] it was 0.25 µg/mL (≈ 0.461 µM); with Staphylococcus aureus [3] it was 0.125 µg/mL (≈ 0.23 µM); with Streptococcus agalactiae, 0.25 µg/mL (≈ 0.461 µM); in the assay with Enterococcus faecalis, 32 µg/mL (≈ 59 µM); in the assay with Pasteurella multocida it was not below 64 µg/mL. In addition, the MIC with Escherichia coli was not below 64 µg/mL.

For the compound `C=C[C@]1(C)C[C@@H](OC(=O)CSc2ncnc(OC3CCCC3)n2)[C@]2(C)[C@H](C)CC[C@]3(CCC(=O)[C@H]32)[C@@H](C)[C@@H]1O`, the MIC is 16 µg/mL (≈ 28.7 µM) in the assay with Staphylococcus aureus [1]; 16 µg/mL (≈ 28.7 µM) in assay [2]; 4 µg/mL (≈ 7.17 µM) in the assay on Staphylococcus aureus [3]; 8 µg/mL (≈ 14.3 µM) in the assay with Streptococcus agalactiae; not below 64 µg/mL in the assay on Enterococcus faecalis; not below 64 µg/mL with Pasteurella multocida. Further, the MIC in the assay on Escherichia coli is not below 64 µg/mL.

As for `C=C[C@]1(C)C[C@@H](OC(=O)CSc2ncnc(NCCNCC)n2)[C@]2(C)[C@H](C)CC[C@]3(CCC(=O)[C@H]32)[C@@H](C)[C@@H]1O`, the MIC in the assay with Staphylococcus aureus [1] was 0.125 µg/mL (≈ 0.223 µM); in assay [2], 0.25 µg/mL (≈ 0.447 µM); in the assay with Staphylococcus aureus [3] it was 0.063 µg/mL (≈ 0.113 µM); in the assay on Streptococcus agalactiae it was 0.25 µg/mL (≈ 0.447 µM); with Enterococcus faecalis, 32 µg/mL (≈ 57.2 µM); with Pasteurella multocida, not below 64 µg/mL. Besides, the MIC with Escherichia coli is not below 64 µg/mL.

For `C=C[C@]1(C)C[C@@H](OC(=O)CSc2ncnc(N(CC)CC)n2)[C@]2(C)[C@H](C)CC[C@]3(CCC(=O)[C@H]32)[C@@H](C)[C@@H]1O`, the MIC in the assay with Staphylococcus aureus [1] was 0.25 µg/mL (≈ 0.459 µM); in assay [2] it was 0.125 µg/mL (≈ 0.229 µM); in the assay with Staphylococcus aureus [3] it was 0.125 µg/mL (≈ 0.229 µM); with Streptococcus agalactiae, 0.25 µg/mL (≈ 0.459 µM); in the assay with Enterococcus faecalis, not below 64 µg/mL; in the assay on Pasteurella multocida it was not below 64 µg/mL. In the assay with Escherichia coli, the MIC is not below 64 µg/mL.

As to `C=C[C@]1(C)C[C@@H](OC(=O)CSc2ncnc(OCC)n2)[C@]2(C)[C@H](C)CC[C@]3(CCC(=O)[C@H]32)[C@@H](C)[C@@H]1O`, the MIC is 0.125 µg/mL (≈ 0.241 µM) with Staphylococcus aureus [1]; 0.25 µg/mL (≈ 0.483 µM) in assay [2]; 0.125 µg/mL (≈ 0.241 µM) with Staphylococcus aureus [3]; 0.25 µg/mL (≈ 0.483 µM) with Streptococcus agalactiae; 32 µg/mL (≈ 61.8 µM) with Enterococcus faecalis; not below 64 µg/mL in the assay with Pasteurella multocida. In addition, the MIC in the assay on Escherichia coli is not below 64 µg/mL.

Turning to `C=C[C@]1(C)C[C@@H](OC(=O)CSc2ncnc(NCCN)n2)[C@]2(C)[C@H](C)CC[C@]3(CCC(=O)[C@H]32)[C@@H](C)[C@@H]1O`, the MIC in the assay on Staphylococcus aureus [1] is 8 µg/mL (≈ 15 µM); in assay [2] it was 8 µg/mL (≈ 15 µM); with Staphylococcus aureus [3] it was 2 µg/mL (≈ 3.76 µM); in the assay on Streptococcus agalactiae, 2 µg/mL (≈ 3.76 µM); with Enterococcus faecalis, not below 64 µg/mL; in the assay with Pasteurella multocida, not below 64 µg/mL. The MIC with Escherichia coli was not below 64 µg/mL.

`C=C[C@]1(C)C[C@@H](OC(=O)CSc2ncnc(N3CCN(C)CC3)n2)[C@]2(C)[C@H](C)CC[C@]3(CCC(=O)[C@H]32)[C@@H](C)[C@@H]1O`: the minimum inhibitory concentration (MIC) in the assay on Staphylococcus aureus [1] is 0.125 µg/mL (≈ 0.219 µM); in assay [2], 0.125 µg/mL (≈ 0.219 µM); in the assay on Staphylococcus aureus [3], 0.125 µg/mL (≈ 0.219 µM); with Streptococcus agalactiae it was 4 µg/mL (≈ 7 µM); in the assay with Enterococcus faecalis, not below 64 µg/mL; in the assay on Pasteurella multocida it was not below 64 µg/mL. Besides, the MIC in the assay on Escherichia coli was not below 64 µg/mL.
